Data: patent US20150374673A1, “Combination Therapy for the Treatment of Nosocomial Pneumonia” (priority 2013, published 2015)
Entries after “also recorded” stand apart in the source; their conditions may differ.

How the values were obtained:
[1] = tested on: P. aeruginosa; assay: In vivo efficacy, ceftazidime human simulated regimen, neutropenic lung infection model (ICR mice); design: species or system Pseudomonas aeruginosa; settings: 24 h
Procedure: Groups of mice were administered the ceftazidime regimen beginning two hours after the initiation of infection. All doses were administered as 0.2 mL subcutaneous injections and consisted of three 8-hour dosing intervals (i.e. 24 hours). To serve as control animals, an additional group of mice were administered normal saline at the same volume, route, and frequency as the treatment regimen. Harvesting and processing of lungs from each animal was done as previously described and efficacy was defined as the change in bacterial density, calculated as the change in log10 bacterial CFU obtained for treated mice after 24 h from that of that starting densities observed in 0 h control animals.

[2] = tested on: P. aeruginosa; assay: In vivo efficacy, ceftazidime directed ELF fT>MIC regimen, neutropenic lung infection model (ICR mice); design: species or system Pseudomonas aeruginosa; settings: for Change log CFU Mean: 24 h
Procedure: It has been observed in surveillance studies that the MIC90 for ceftazidime-avibactam against P. aeruginosa is 8 μg/mL (10-12). Given this, there are few isolates with higher MICs and the number that would grow within the murine lung infection model is even less. […] Doses of the previous humanized regimen described above were […] throughout the dosing period and further pharmacokinetic studies were performed. […] Mice were euthanized and serum and BAL samples were collected, as described above, at predetermined times.
For these studies, 9 P. aeruginosa isolates were evaluated against the CAZ regimen in mice that yielded specific ELF fT>MIC. Doses were initiated 2 hours after inoculation of the test organisms ? and all doses were administered as 0.2 mL subcutaneous injections and consisted of three 8 hour dosing intervals (i.e. 24 hours). To serve as control animals, an additional group of mice were administered normal saline at the same volume, route, and frequency as the treatment regimen. The harvesting procedure for all study mice began with euthanization by CO2 exposure followed by cervical dislocation. After sacrifice, lungs were removed and individually homogenized in normal saline. Serial dilutions of the lung homogenate were plated on trypticase soy agar with 5% sheep blood for CFU determination. In addition to the above mentioned treatment and control groups, another group of 6 infected, untreated mice were harvested at the initiation of dosing and served as 0 h controls. Efficacy, designated as the change in bacterial density, was calculated as the change in log10 bacterial CFU obtained for treated mice after 24 h from that of that starting densities observed in 0 h control animals.

**Q.** For `CC(C)(O/N=C(\C(=O)N[C@@H]1C(=O)N2C(C(=O)[O-])=C(C[n+]3ccccc3)CS[C@H]12)c1csc(N)n1)C(=O)O` [ceftazidime, (6R,7R)-7-[[(2Z)-2-(2-amino-1,3-thiazol-4-yl)-2-(1-hydroxy-2-methyl-1-oxopropan-2-yl)oxyiminoacetyl]amino]-8-oxo-3-(pyridin-1-ium-1-ylmethyl)-5-thia-1-azabicyclo[4.2.0]oct-2-ene-2-carboxylate pentahydrate], which “Change log CFU Mean” value ([1]; isolate PSA 1-25, control 0 h 6.21, 24 h 10.01) is on record?
**A.** 6.42 log CFU

**Q.** And the “Change log CFU Mean” value ([1]; isolate PSA 3-9, control 0 h 6.45, 24 h 7.77)?
**A.** 6.48 log CFU

**Q.** And the “Change log CFU Mean” value ([1]; isolate PSA 4-32, control 0 h 5.56, 24 h 9.34)?
**A.** 3.57 log CFU

**Q.** What about the “Change log CFU Mean” value ([1]; isolate PSA 4-36, control 0 h 6.53, 24 h 9.72) of the same molecule?
**A.** 5.01 log CFU

**Q.** What about the “Change log CFU Mean” value ([1]; isolate PSA 4-84, control 0 h 6.16, 24 h 9.66) of the same molecule?
**A.** 4.88 log CFU

**Q.** What about the “Change log CFU Mean” value ([1]; isolate PSA 8-16, control 0 h 5.93, 24 h 9.94) of the same molecule?
**A.** 5.38 log CFU

**Q.** What about the “Change log CFU Mean” value ([1]; isolate PSA 22, control 0 h 5.99, 24 h 9.15) of the same molecule?
**A.** 4.83 log CFU

**Q.** What about the “Change log CFU Mean” value ([1]; isolate PSA 28-19, control 0 h 6.46, 24 h 9.8) of the same molecule?
**A.** 5.07 log CFU

**Q.** And the “Change log CFU Mean” value ([1]; isolate PSA 37-8, control 0 h 6.02, 24 h 8.26)?
**A.** 3.8 log CFU

**Q.** What about the “activity in neutropenic lung infection model” value ([2]; directed ELF fT>MIC regimen, isolates with MICs of 32 μg/mL) of the same molecule?
**A.** Activity was observed

**Q.** What about the “activity in neutropenic lung infection model” value ([2]; in vivo) of the same molecule?
**A.** Efficacy was variable; also recorded: little to no activity

**Q.** And the “Change log CFU Mean” value ([2]; isolate PSA 968, control 0 h 5.98, 24 h 9.76)?
**A.** 4.45 log CFU

**Q.** And the “Change log CFU Mean” value ([2]; isolate PSA 1382, control 0 h 5.91, 24 h 8.64)?
**A.** 6.42 log CFU

**Q.** What about the “Change log CFU Mean” value ([2]; isolate PSA 1383, control 0 h 5.77, 24 h 7.29) of the same molecule?
**A.** 3.73 log CFU

**Q.** And the “Change log CFU Mean” value ([2]; isolate PSA 1384, control 0 h 5.86, 24 h 7.61)?
**A.** 4.4 log CFU

**Q.** And the “Change log CFU Mean” value ([2]; isolate PSA 1386, control 0 h 5.79, 24 h 9.67)?
**A.** 5.98 log CFU

**Q.** And the “Change log CFU Mean” value ([2]; isolate PSA 1387, control 0 h 6.39, 24 h 9.45)?
**A.** 4.23 log CFU

**Q.** And the “Change log CFU Mean” value ([2]; isolate PSA 1388, control 0 h 5.86, 24 h 8.39)?
**A.** 5.54 log CFU

**Q.** And the “Change log CFU Mean” value ([2]; isolate PSA 1389, control 0 h 5.68, 24 h 9.67)?
**A.** 6.3 log CFU

**Q.** What about the “Change log CFU Mean” value ([2]; isolate PSA 1394, control 0 h 5.58, 24 h 7.73) of the same molecule?
**A.** 5.96 log CFU
